Test results from patent publication US11076596B2, “Substituted trifluoromethyloxadiazoles for combating phytopathogenic fungi” (BASF SE, priority 2017, dated 2021).

melting point: 175 °C
SMILES: CO/N=C1\CCCC1NC(=O)c1ccc(-c2noc(C(F)(F)F)n2)cc1 (stereo not shown) [Ex-1, N-[(2E)-2-methoxyiminocyclopentyl]-4-[5-(trifluoromethyl)-1,2,4-oxadiazol-3-yl]benzamide]
